# Assay results published in patent US11096987B2, “Mutant peptides and methods of treating subjects using the same” (BIOINCEPT, LLC, priority 2015, dated 2021).
# Like-named read-outs stand apart in the source and are kept apart here.
# Tests used:
# [1] = tested on: Jurkat T-cells; test: K+ flux inhibition in Jurkat T-cells; assay type: cell-based; conditions: compared with control
# Description: (§1) (FIG. 2). […] (FIG. 3). […] (FIG. 4). […] Thus dependent on the target Kv1.3 or IDE the mutated PIF-1 can have a target-specific effect which can also translate to diverse biological activity.
# [2] = tested on: CD11b (macrophage) monocytes; test: FITC-PIF assay, binding to CD11b monocytes; conditions: for CD11b %: FITC-PIF binding
# [3] = tested on: let-7; test: let-7 microRNA levels in microglia and neural cell lines; assay type: cell-based
# Description: as §1
# This direct effect on target cells was confirmed by targeting microglia and neuron cell line (Neu) in vitro (FIGS. 5C, D). […] Phosphorylated CREB in turn facilitates expression of (Gap43, Bdnf and Bcl2) (FIG. 5F) that play important role regulating neuronal growth, survival, which is dependent on TLR4 signaling (FIG. 5G). PKA/PKC was reported to impart TBI (Lucke-Wold, Logsdon et al. 2014; Zohar, Lavy et al. 2011; Titus 2013). […] For currently used neuroprotective drugs ability to reach the brain in both intact and damaged settings is difficult. Therefore frequently drugs in order to pass the BBB they have to be very small, or have to be added to agents that would favor passage.
# [4] = tested on: CD19 (B cell) monocytes; test: FITC-PIF assay, binding to CD19 monocytes
# [5] = target: insulin degrading enzyme (IDE) (Homo sapiens, UniProt P14735); test: Fluorescent based thermal shift assay; assay type: binding; conditions: ligands 10 uM, receptor 1 uM
# Procedure: Concentrations of the ligands 10 uM and 1 uM of the receptor, buffer consisting of 10 mM HEPES-HCL, 150 mM […], and protein folding sensitive dye SyO 1:1000.
# as §1
Tm / thermal shift compared to PIF(wt) ([5]; listed as PIF(mutant-3)),Tm / thermal shift compared to PIF(wt) ([5]; listed as mut-3),Tm / thermal shift compared to PIF(wt) ([5]; listed as PIF(mutant-1)),Tm / thermal shift compared to PIF(wt) ([5]; listed as mut-1),Sequence,effect on K+ flux [1],binding affinity to CD11b monocytes compared to natural PIF [2],CD11b % [2],effect on let-7 microRNA [3],binding affinity to CD19 monocytes compared to natural PIF [4],CD19 % ([4]; FITC-PIF binding),CD19 % [4]
increased Tm,activity was decreased,–,–,"MVRGKPGSANKPSDD [SEQ ID NO: 8, PIF mutant]",no effect,higher binding affinity,35.48%,lack of effect,higher binding affinity,5.60%,–
–,–,–,–,AVRIKPGSANKPSDD [SEQ ID NO: 10],–,higher binding affinity,33.54%,–,higher binding affinity,–,5.90%
–,–,decreased Tm,reduced thermal shift,"MVRIKEGSANKPSDD [SEQ ID NO: 7, PIF mutant]",no effect,–,–,–,–,–,–
